Measurements as given in ChEMBL document CHEMBL3414499, “Characterization of two distinct structural classes of selective aldehyde dehydrogenase 1A1 inhibitors” (J Med Chem, 2015).
Active and inactive are the calls of the source. No cut-off for these calls is given here.

Tests used:
[1] = target: T1, Aldehyde dehydrogenase X, mitochondrial (Homo sapiens) (UniProt P30837); test: Activation of recombinant human ALDH1B1 using propionaldehyde as substrate at 20 uM preincubated for 2 mins with NAD+ followed by substrate addition by UV-Vis spectrophotometric analysis
T1 sequence (whole entry): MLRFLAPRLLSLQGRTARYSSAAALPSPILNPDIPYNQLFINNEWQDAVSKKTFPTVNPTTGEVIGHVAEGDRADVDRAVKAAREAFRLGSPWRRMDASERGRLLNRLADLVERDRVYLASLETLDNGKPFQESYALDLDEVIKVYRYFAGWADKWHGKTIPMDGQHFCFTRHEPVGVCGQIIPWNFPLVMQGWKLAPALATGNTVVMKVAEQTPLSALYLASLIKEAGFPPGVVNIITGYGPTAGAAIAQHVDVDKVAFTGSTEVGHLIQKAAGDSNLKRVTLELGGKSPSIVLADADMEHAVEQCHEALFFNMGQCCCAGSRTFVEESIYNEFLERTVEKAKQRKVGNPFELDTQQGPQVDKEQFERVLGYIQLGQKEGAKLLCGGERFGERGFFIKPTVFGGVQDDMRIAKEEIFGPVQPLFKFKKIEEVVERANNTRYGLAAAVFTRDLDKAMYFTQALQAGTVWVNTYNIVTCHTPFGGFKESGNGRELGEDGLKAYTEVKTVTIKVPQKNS

[2] = target: T2, Aldehyde dehydrogenase, mitochondrial (Homo sapiens) (UniProt P05091); test: Inhibition of recombinant human ALDH2 using propionaldehyde as substrate at 100 uM preincubated for 2 mins with NAD+ followed by substrate addition by UV-Vis spectrophotometric analysis
T2 sequence (whole entry): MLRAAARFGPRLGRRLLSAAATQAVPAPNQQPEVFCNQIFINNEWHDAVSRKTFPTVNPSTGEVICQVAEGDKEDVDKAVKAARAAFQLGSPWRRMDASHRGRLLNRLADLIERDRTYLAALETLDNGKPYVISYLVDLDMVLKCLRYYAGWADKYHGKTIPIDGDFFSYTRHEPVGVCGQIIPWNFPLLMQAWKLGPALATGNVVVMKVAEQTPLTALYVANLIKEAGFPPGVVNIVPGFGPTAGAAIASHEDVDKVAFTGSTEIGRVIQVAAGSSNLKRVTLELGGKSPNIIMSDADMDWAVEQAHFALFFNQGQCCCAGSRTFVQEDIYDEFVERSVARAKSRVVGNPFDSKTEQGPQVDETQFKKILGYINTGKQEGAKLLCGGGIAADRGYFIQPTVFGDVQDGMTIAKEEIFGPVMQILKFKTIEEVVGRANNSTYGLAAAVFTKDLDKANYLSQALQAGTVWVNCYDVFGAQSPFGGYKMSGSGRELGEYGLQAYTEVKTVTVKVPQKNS

[3] = target: T3, Aldehyde dehydrogenase, dimeric NADP-preferring (Homo sapiens) (UniProt P30838); test: Activation of recombinant human ALDH3A1 using benzaldehyde as substrate at 20 uM preincubated for 2 mins with NAD+ followed by substrate addition by UV-Vis spectrophotometric analysis
T3 sequence (whole entry): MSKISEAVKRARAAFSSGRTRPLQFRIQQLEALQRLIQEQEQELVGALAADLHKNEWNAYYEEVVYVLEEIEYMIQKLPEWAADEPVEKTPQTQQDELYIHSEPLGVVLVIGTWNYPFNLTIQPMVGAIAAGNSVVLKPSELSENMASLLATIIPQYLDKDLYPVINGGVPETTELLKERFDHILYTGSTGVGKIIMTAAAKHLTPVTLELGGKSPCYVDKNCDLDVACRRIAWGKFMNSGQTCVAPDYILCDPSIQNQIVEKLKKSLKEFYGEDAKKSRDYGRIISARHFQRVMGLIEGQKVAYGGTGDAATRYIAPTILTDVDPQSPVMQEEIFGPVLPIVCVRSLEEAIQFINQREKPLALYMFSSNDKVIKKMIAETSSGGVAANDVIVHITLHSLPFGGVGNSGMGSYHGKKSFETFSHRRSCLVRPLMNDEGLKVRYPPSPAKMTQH

[4] = target: T3, Aldehyde dehydrogenase, dimeric NADP-preferring (Homo sapiens); test: Inhibition of recombinant human ALDH3A1 using benzaldehyde as substrate at 100 uM preincubated for 2 mins with NAD+ followed by substrate addition by UV-Vis spectrophotometric analysis
[5] = target: T4, Retinaldehyde dehydrogenase 3 (Homo sapiens) (UniProt P47895); test: Activation of recombinant human ALDH1A3 using propionaldehyde as substrate at 100 uM preincubated for 2 mins with NAD+ followed by substrate addition by UV-Vis spectrophotometric analysis
T4 sequence (whole entry): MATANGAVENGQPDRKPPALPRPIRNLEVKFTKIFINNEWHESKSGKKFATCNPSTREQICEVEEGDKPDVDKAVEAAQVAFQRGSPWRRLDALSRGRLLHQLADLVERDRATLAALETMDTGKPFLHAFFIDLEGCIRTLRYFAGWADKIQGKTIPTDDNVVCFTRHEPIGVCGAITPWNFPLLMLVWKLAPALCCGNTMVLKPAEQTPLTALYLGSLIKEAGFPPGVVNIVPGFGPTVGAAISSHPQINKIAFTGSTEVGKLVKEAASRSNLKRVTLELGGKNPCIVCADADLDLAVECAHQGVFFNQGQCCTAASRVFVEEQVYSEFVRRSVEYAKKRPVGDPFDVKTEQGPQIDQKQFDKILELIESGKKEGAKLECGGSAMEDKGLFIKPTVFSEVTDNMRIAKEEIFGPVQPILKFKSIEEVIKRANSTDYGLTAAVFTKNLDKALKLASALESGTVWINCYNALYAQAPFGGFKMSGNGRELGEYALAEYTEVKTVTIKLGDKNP

[6] = target: T5, Aldehyde dehydrogenase 1A1 (Homo sapiens, UniProt P00352); test: Inhibition of recombinant human ALDH1A1 using propionaldehyde as substrate preincubated for 2 mins with NAD+ followed by substrate addition by UV-Vis spectrophotometric analysis
T5 sequence (P00352 whole entry): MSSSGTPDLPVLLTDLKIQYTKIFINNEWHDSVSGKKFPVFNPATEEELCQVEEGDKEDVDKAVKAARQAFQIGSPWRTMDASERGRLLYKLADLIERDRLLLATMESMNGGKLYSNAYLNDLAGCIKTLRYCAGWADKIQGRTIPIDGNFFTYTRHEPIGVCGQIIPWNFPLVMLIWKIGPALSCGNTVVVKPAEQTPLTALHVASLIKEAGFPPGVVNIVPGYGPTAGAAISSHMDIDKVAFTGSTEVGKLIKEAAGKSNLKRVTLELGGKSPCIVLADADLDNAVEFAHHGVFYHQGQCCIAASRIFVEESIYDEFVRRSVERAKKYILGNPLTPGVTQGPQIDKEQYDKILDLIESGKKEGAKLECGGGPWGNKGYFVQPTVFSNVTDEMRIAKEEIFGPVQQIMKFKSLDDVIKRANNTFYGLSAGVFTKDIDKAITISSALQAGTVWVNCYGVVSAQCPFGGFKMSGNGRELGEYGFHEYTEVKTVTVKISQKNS

[7] = target: T4, Retinaldehyde dehydrogenase 3 (Homo sapiens); test: Activation of recombinant human ALDH1A3 using propionaldehyde as substrate at 20 uM preincubated for 2 mins with NAD+ followed by substrate addition by UV-Vis spectrophotometric analysis

Row | Structure (SMILES) | Activity [1] [%] | inhibition [2] | Activity [3] [%] | inhibition [4] | Activity [5] | IC50 [6] [µM] | Activity [7] [%]
1 | CCCCn1c(Oc2ccc(C(=O)OC)cc2)nc2c1c(=O)n(C)c(=O)n2C | < 10 | inactive | < 10 | inactive | Active | 5.2 | < 10
2 | CCCCn1c(CN2CCN(c3ccc(OC)cc3)CC2)nc2c1c(=O)n(C)c(=O)n2C | < 10 | inactive | < 10 | inactive | – | > 20 | < 10
3 | Cn1c(=O)c2c(nc(N3CCOCC3)n2Cc2ccccc2F)n(C)c1=O | < 10 | inactive | < 10 | inactive | Active | > 20 | < 10
4 | Cn1c(=O)c2c(nc(CN3CCC(C(N)=O)CC3)n2CCCc2ccccc2)n(C)c1=O | < 10 | – | < 10 | inactive | – | – | < 10
5 | Cn1c(=O)c2c(nc(N3CCN(Cc4ccccc4)CC3)n2Cc2cccc(Cl)c2)n(C)c1=O | < 10 | inactive | < 10 | – | Active | > 20 | < 10
6 | CCCCn1c(CN2CCN(c3cccc(Cl)c3)CC2)nc2c1c(=O)n(C)c(=O)n2C | < 10 | – | < 10 | – | – | > 20 | < 10
7 | CC(C)CCn1c(CN2CCOCC2)nc2c1c(=O)n(C)c(=O)n2C | < 10 | – | < 10 | inactive | – | – | < 10
8 | CC(C)CCn1c(CN(C)Cc2ccccc2)nc2c1c(=O)n(C)c(=O)n2C | < 10 | – | < 10 | inactive | Active | 3.4 | < 10
9 | CC(C)CCn1c(CN2CCN(C(=O)c3ccco3)CC2)nc2c1c(=O)n(C)c(=O)n2C | < 10 | inactive | < 10 | – | Active | – | < 10
10 | CCN1CCN(Cc2nc3c(c(=O)n(C)c(=O)n3C)n2CC(=O)c2ccccc2)CC1 | < 10 | inactive | < 10 | inactive | – | – | < 10
11 | Cn1c(=O)c2c(nc(SCC(N)=O)n2Cc2ccccc2F)n(C)c1=O | < 10 | inactive | < 10 | – | Active | 14 | < 10
